The source of these data is patent publication EP2021356B1, “HIV VACCINE” (priority 2006, dated 2007).

Ends that are not written are not given here.

In one experiment the target is HLA-A*0201 molecule (Homo sapiens, UniProt P04439, D140Y/D185E/D98H/E176V/E277Q/G131W/G231S/I119V/I121R/I166T/I218V/L300P/L318F/N151K/N90K/P208A/P217A/Q86G/Q94H/R138H/R169H/T345S). Briefly: In vitro binding to HLA-A*0201.
Details: not given
In the case of `CC[C@H](C)[C@H](NC(=O)[C@H](CC(C)C)NC(=O)[C@H](CCC(N)=O)NC(=O)[C@H](CC(=O)O)NC(=O)[C@H](C)NC(=O)[C@H](CC(C)C)NC(=O)CN)C(=O)N[C@@H](Cc1c[nH]cn1)C(=O)N[C@@H](CC(C)C)C(=O)O` [Vif 101 (9L)], the IC50 amounted to 0.219 µM.

As for DLADQLIHL [Vif 101 (1 D)], the IC50 turned out to be 1.95 µM.

In turn, ELADQLIHL [Vif101(1E)^var] registered an IC50 of 6.59 µM.

GLADQLIHI [Vif 101 (9 I)] showed an IC50 of 0.03 µM.

The compound HLADQLIHQ [G1HL9Q] displayed an IC50 of 1.16 µM.

As for SLADQLIHL [Vif 101 (1 S)], the IC50 turned out to be 0.043 µM.

Another experiment relates to peptide pulsed HHD-EL4S3-Rob target cells.
Experiment: not given
The following applies: Corbet et al., 2003; cited from earlier work.
ALVEMGHHV [Vpu66(9V)^mod]: the “immunogenicity of anchor-optimized epitope with cross-reaction to the natural epitope” value is recorded as “very strong immune response”.

For the compound FLGKIWPV [Gag433(9V)^mod], the “immunogenicity of anchor-optimized epitope with cross-reaction to the natural epitope” value was “very strong immunogens”.

One may read the IC50 as the concentration that gives 50% inhibition. Read a low IC50 as greater potency.
